According to patent US9856212B1, “Biphenyl compounds and applications thereof” (Shenyang Sinochem Agrochemicals R&D Co., Ltd., priority 2017, dated 2018):

What was measured:
Assay type in all cases: in vivo
spider mites = test: Test of systemic activity against spider mite through root absorption; conditions: root absorption 24 h, mites on bean leaves, after 72 h
Procedure: The high acaricidal compound 1 were dissolved in acetone, and then diluted with 0.1% aqueous solution of Tween 80 to form test solution in different concentration. Three replicates were set for each treatment. Water is blank control. The 10 ml compound 1 solution was added into the tube. Two true leaves bean plants were taken and the soil in the root was removed. The bean plant was dipped into the test solution in different concentration. After absorbing 24 h, 30 to 50 spider mites were put onto the true leaves. Then the bean plants were maintained in observation room at 25±1° C. After 72 h, the death and survival mites in each leaf was observed, the mortality of the mites and systemic activity was determined.

[1] = system: adult spider mites (Tetranychuscinnabarinus); test: Test against adult spider mite, greenhouse spray on bean leaves; conditions: after 72 h
Procedure: The adult spider mites (Tetranychuscinnabarinus) were put into two true leaves of bean plants. After the number of mites were investigated, the solution of certain concentrations of test compounds was sprayed by using a sprinkler. Three replicates were set for each treatment. Then the leaves were maintained in standard observation room. After 72 h the survival mites in each leaf were observed, and mortality of the mites was determined.

[2] = system: deutonymph of spider mite (Tetranychuscinnabarinus); test: Test against deutonymph of spider mite, greenhouse spray; conditions: after 72 h
Procedure: Ten healthy female adult spider mites (Tetranychuscinnabarinus) were put into two true leaves of bean plants. The adult spider mites were removed after 24 h and the eggs were to be continued incubating. After ten days, the number of deutonymph were investigated and recorded. The solution of certain concentrations of test compounds was sprayed by using a sprinkler. Three replicates were set for each treatment. Then the deutonymph of spider mites were maintained in standard observation room. After 72 h, the survival mites in each leaf were observed, and mortality of the mites was determined.

[3] = system: citrus red mite (Panonychuscitri); test: Field trial against citrus red mite (Jiangxi, China); conditions: orange orchard
Procedure: The trial was carried out in a 2-year-old Shatang orange orchard in Ganzhou city Jiangxi province, trifoliate orange trees were selected as stocks, the intervals between two plants was 1.50×2.50 m, the average height was 1.45 m and the crown width was 1.30 m. Two trees were selected in each plot, with random arrangement and 4 replications. Compound 1 (10% SC) was set at three different doses (100 mg/L, 50 mg/L and 25 mg/L), spirodiclofen (29% SC) was set at one dose (50 mg/L), and pyridaben (20% EC) was set at one dose (100 mg/L). MatabiSupergreen 16 Knapsack Sprayer 16 Liter was used to spray evenly with 2 L of spraying volume for each plant. The plants were treated once in May at that time, adults, nymphs, eggs of citrus red mite all existed, with adults/eggs=1/1.2. During the day the plants were treated, and the weather was good with the average temperature at 24° C. The first three days after treatment were all clear days. The number of mites was investigated before treatment and on the 1st, 3rd, 7th, 14th, 22nd and 28th day after treatment respectively. Two trees of each plot were investigated according to the five directions of the tree crown (east, south, west, north and central), 5 leaves in each direction were investigated to calculate the number of living mites, with 50 leaves each plot. The decline rate of mite population and corrected efficacy were calculated according to formulas below: The decline rate of mite population (%)=[(the average number of mite on each leaf before treatment−the average number of mite on each leaf after treatment)/the average number of mite on each leaf before treatment]×100. Corrected efficacy (%)=[(the decline rate of mite population in treated area−the decline rate of mite population in untreated area)/(100−the decline rate of mite population in untreated area)]×100.

[4] = system: egg of spider mite (Tetranychuscinnabarinus); test: Test against egg of spider mite, greenhouse spray; conditions: eggs, 5 days
Procedure: Two true leaves of bean plants were taken and one true leaf was removed. Then ten healthy female adult spider mites were put into the true leaf. The adult spider mites were removed after 24 h and the eggs were investigated. The solution of certain concentrations of test compounds was sprayed by using a sprinkler. Three replicates were set for each treatment. The untreated eggs were all incubated after 5 days. The unincubation of treated eggs in leaf was observed, and incubation inhibition rate of the eggs was determined.

[5] = 50 mg/L, the 1st day after treatment
[6] = 50 mg/L, the 3rd day after treatment
[7] = 50 mg/L, the 7th day after treatment
[8] = 50 mg/L, the 14th day after treatment
[9] = 50 mg/L, the 22nd day after treatment
[10] = 50 mg/L, the 28th day after treatment
[11] = 100 mg/L, the 1st day after treatment
[12] = 100 mg/L, the 3rd day after treatment
[13] = 100 mg/L, the 7th day after treatment
[14] = 100 mg/L, the 14th day after treatment
[15] = 100 mg/L, the 22nd day after treatment
[16] = 100 mg/L, the 28th day after treatment

Compound: Cc1cc(F)c(-c2cc(SCC(F)(F)F)c(C)cc2F)cc1SCC(F)(F)F [Compound 1]
- Mortality (%) (spider mites; 50 mg/L): 80%
- Mortality (%) (spider mites; 200 mg/L): 88%
- Mortality (%) ([1]; 5 mg/L): 100%
- Mortality (%) ([1]; 100 mg/L): 100%
- Mortality (%) ([2]; 0.25 mg/L): 64%
- Mortality (%) ([2]; 0.5 mg/L): 97%
- Mortality (%) ([2]; 1 mg/L): 100%
- Corrected efficacy (%) ([3]; 25 mg/L, the 1st day after treatment): 9%
- Corrected efficacy (%) ([3]; 25 mg/L, the 3rd day after treatment): 53%
- Corrected efficacy (%) ([3]; 25 mg/L, the 7th day after treatment): 74%
- Corrected efficacy (%) ([3]; 25 mg/L, the 14th day after treatment): 77%
- Corrected efficacy (%) ([3]; 25 mg/L, the 22nd day after treatment): 75%
- Corrected efficacy (%) ([3]; 25 mg/L, the 28th day after treatment): 73%
- Corrected efficacy (%) [3, 5]: 18%
- Corrected efficacy (%) [3, 6]: 87%
- Corrected efficacy (%) [3, 7]: 92%
- Corrected efficacy (%) [3, 8]: 91%
- Corrected efficacy (%) [3, 9]: 92%
- Corrected efficacy (%) [3, 10]: 92%
- Corrected efficacy (%) [3, 11]: 25%
- Corrected efficacy (%) [3, 12]: 89%
- Corrected efficacy (%) [3, 13]: 97%
- Corrected efficacy (%) [3, 14]: 99%
- Corrected efficacy (%) [3, 15]: 99%
- Corrected efficacy (%) [3, 16]: 98%
- Incubation inhibition rate (%) ([4]; 0.25 mg/L): 18%
- Incubation inhibition rate (%) ([4]; 1 mg/L): 34%
- Incubation inhibition rate (%) ([4]; 5 mg/L): 100%

Compound: Cc1cc(F)c(-c2cc([S+]([O-])CC(F)(F)F)c(C)cc2F)cc1SCC(F)(F)F (centres unmarked) [Compound 2]
- Mortality (%) ([1]; 100 mg/L): 100%

Compound: Cc1cc(F)c(-c2cc([S+]([O-])CC(F)(F)F)c(C)cc2F)cc1[S+]([O-])CC(F)(F)F (centres unmarked) [Compound 3]
- Mortality (%) ([1]; 100 mg/L): 100%

Compound: Cc1cc(F)c(-c2cc(SCC(F)F)c(C)cc2F)cc1SCC(F)F [Compound 62]
- Mortality (%) ([1]; 100 mg/L): 100%

Compound: Cc1cc(F)c(-c2cc([S+]([O-])CC(F)F)c(C)cc2F)cc1SCC(F)F (centres unmarked) [Compound 63]
- Mortality (%) ([1]; 100 mg/L): 100%

Compound: CC(C)(C)c1ccc(CSc2cnn(C(C)(C)C)c(=O)c2Cl)cc1 [pyridaben, reference compound]
- Mortality (%) ([2]; 0.25 mg/L): 25%
- Mortality (%) ([2]; 0.5 mg/L): 60%
- Mortality (%) ([2]; 1 mg/L): 84%
- Corrected efficacy (%) [3, 11]: 0%
- Corrected efficacy (%) [3, 12]: 65%
- Corrected efficacy (%) [3, 13]: 90%
- Corrected efficacy (%) [3, 14]: 93%
- Corrected efficacy (%) [3, 15]: 92%
- Corrected efficacy (%) [3, 16]: 95%

Compound: CCC(C)(C)C(=O)OC1=C(c2ccc(Cl)cc2Cl)C(=O)OC12CCCCC2 [spirodiclofen, reference compound]
- Corrected efficacy (%) [3, 5]: 20%
- Corrected efficacy (%) [3, 6]: 48%
- Corrected efficacy (%) [3, 7]: 63%
- Corrected efficacy (%) [3, 8]: 80%
- Corrected efficacy (%) [3, 9]: 71%
- Corrected efficacy (%) [3, 10]: 70%
- Incubation inhibition rate (%) ([4]; 0.25 mg/L): 13%
- Incubation inhibition rate (%) ([4]; 1 mg/L): 37%
- Incubation inhibition rate (%) ([4]; 5 mg/L): 100%
